Experiment [1] addresses benzodiazepine receptors. The experiment can be described thus: Affinity for benzodiazepine receptors, displacement of ^3 H-labelled flunitrazepam in membranes from the rear portion of the brain in rats (Test 1). As to conditions: 0.6×10^-9 mol of ^3 H-labelled flunitrazepam; membranes from the rear portion of rat brain; read-out: Test 1: concentration which inhibited 50% of the specific binding of ^3 H-labelled flunitrazepam (IC50). As to the method: The affinity of the active ingredients for the benzodiazepine receptors was measured using a radioactively labelled (^3 H) compound flunitrazepam,and a modified version of the method of Squires and Braestrup (Nature, 1977, Vol. 266, p. 732). The values given in Table 2 below are the concentration (mol×10^-9) of the compound under test which inhibited 50% of the specific binding of 0.6×10^-9 mol of ^3 H-labelled flunitrazepam in preparations of membranes from the rear portion of the brain in rats (IC50 values).

The test system of experiment [2] is benzodiazepine receptors. In words: in vivo binding to benzodiazepine receptors, Goeders et al (Test 2). As to conditions: IP. As for the experimental part: Measuring of in vivo binding to benzodiazepine receptors was carried out according to the method described by Goeders et al, Life Sciences (1985), Vol. 37, p. 345.

Each structure is given as a SMILES string.

`CN1Cc2c(C(=O)C3CC3)ncn2-c2cccc(C3CC3)c2C1=O` [Example 1, 7-cyclopropyl-5,6-dihydro-5-methyl-6-oxo-4H-imidazo-[1,5-a][1,4]-benzodiazepin-3-yl cyclopropyl methanone]: at benzodiazepine receptors [1], the IC50 was 36 nM. Further, in the experiment with benzodiazepine receptors [2], the “Test 2 ED50” value was found to be 0.15 mg/kg.

Regarding `CN1Cc2c(C(=O)C3CC3)ncn2-c2ccnc(C3CC3)c2C1=O` [Example 2, 7-cyclopropyl-5,6-dihydro-5-methyl-6-oxo-4H-imidazo-[1,5-a]-pyrido [3,4-f]diazepin-3-yl cyclopropyl methanone], the IC50 on benzodiazepine receptors [1] amounted to 26 nM. The “Test 2 ED50” value in the experiment with benzodiazepine receptors [2] is 0.08 mg/kg.

Take `CN1Cc2c(C(=O)C3CC3)ncn2-c2ccncc2C1=O` [Example 3, 5,6-dihydro-5-methyl-6-oxo-4H-imidazo [1,5-a]-pyrido-[3,4-f][1,4]-diazepin-3-yl cyclopropylmethanone]: the IC50 at benzodiazepine receptors [1] was found to be 105 nM. In addition, the “Test 2 ED50” value in the experiment on benzodiazepine receptors [2] is reported as 0.13 mg/kg.

The values are drawn from patent US5247079A, “7-cyclopropyl-imidazodiazepines” (Roussel Uclaf, priority 1990, dated 1993).
